# Measurements published in PubChem BioAssay AID2050 (NMMLSC, 2009).
# Active and inactive are the calls of the source.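 How the source made its calls: active means EC50 at or below 30 µM together with a response span of at least a set limit; inactive means the rest.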
# Target: GTPase HRas (Homo sapiens) (UniProt P01112)
# Experiment: activated Ras mutant GTP-binding inhibitors, SAR follow-up, biochemical, pyrazoline analogs, multiplex bead flow cytometry (AID 2050)
# Details: GST-Ras beads, Bodipy-FL-GTP binding
# GTPase HRas (Homo sapiens), sequence (P01112 whole entry, looked up): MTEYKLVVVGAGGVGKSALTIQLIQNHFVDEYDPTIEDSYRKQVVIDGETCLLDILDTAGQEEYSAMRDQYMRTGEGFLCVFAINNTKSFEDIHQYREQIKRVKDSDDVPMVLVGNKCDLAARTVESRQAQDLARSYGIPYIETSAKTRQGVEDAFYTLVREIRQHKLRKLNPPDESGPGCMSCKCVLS
row,EC50,SMILES
1,> 30 µM (inactive),NS(=O)(=O)c1ccc(N2N=C(c3ccccc3)CC2c2ccc(Cl)cc2)cc1 (centres undefined)
2,> 30 µM (inactive),NS(=O)(=O)c1ccc(N2N=C(c3ccccc3)CC2c2cccc(Br)c2)cc1 (centres undefined)
3,> 30 µM (inactive),NS(=O)(=O)c1ccc(N2N=C(c3ccccc3)CC2c2ccc(Br)cc2)cc1 (centres undefined)
4,inactive,COc1ccc(C2=NN(c3ccccc3)C(c3ccc(Cl)cc3)C2)cc1 (centres undefined)
5,> 30 µM (inactive),Fc1ccc(C2=NN(c3cccc(Br)c3)C(c3ccccc3)C2)cc1 (centres undefined)
6,> 30 µM (inactive),COc1ccc(C2CC(c3ccccc3)=NN2c2ccc([N+](=O)[O-])cc2)cc1 (centres undefined)
7,> 30 µM (inactive),NS(=O)(=O)c1ccc(N2N=C(c3ccccc3)CC2c2ccccc2Br)cc1 (centres undefined)
8,> 30 µM (inactive),COc1ccc(C2CC(c3ccccc3F)=NN2c2ccc(S(N)(=O)=O)cc2)cc1 (centres undefined)
9,inactive,O=S(=O)(c1ccc(N2N=C(c3ccc(Br)cc3)CC2c2ccccc2)cc1)C(F)F (centres undefined)
10,> 30 µM (inactive),COc1ccc(C2=NN(c3cccc(F)c3)C(c3ccc(OC)cc3)C2)cc1 (centres undefined)
11,> 30 µM (inactive),COc1ccc(C2CC(c3ccc(Br)cc3)=NN2c2ccc(S(N)(=O)=O)cc2)cc1 (centres undefined)
12,> 30 µM (inactive),NS(=O)(=O)c1ccc(N2N=C(c3ccc(Br)cc3)CC2c2ccc(F)cc2)cc1 (centres undefined)
13,> 30 µM (inactive),COc1ccc(C2=NN(c3ccc(Cl)cc3)C(c3ccccc3F)C2)cc1 (centres undefined)
14,> 30 µM (inactive),O=[N+]([O-])c1cccc(C2CC(c3ccc(F)cc3)=NN2c2ccccc2)c1 (centres undefined)
15,inactive,COc1ccc(C2=NN(c3ccccc3)C(c3ccccc3C(F)(F)F)C2)cc1 (centres undefined)
16,> 30 µM (inactive),O=[N+]([O-])c1ccc(N2N=C(c3ccccc3)CC2c2ccc(O)cc2)cc1 (centres undefined)
17,> 30 µM (inactive),COc1ccc(C2CC(c3ccc(Cl)cc3)=NN2c2ccccc2)cc1OC (centres undefined)

row,EC50,SMILES
1,> 30 µM (inactive),NS(=O)(=O)c1ccc(N2N=C(c3ccccc3)CC2c2ccccc2Cl)cc1 (centres undefined)
2,> 30 µM (inactive),COc1ccccc1C1CC(c2ccccc2)=NN1c1ccc(S(N)(=O)=O)cc1 (centres undefined)
3,> 30 µM (inactive),COc1ccc(C2=NN(c3cccc(F)c3)C(c3ccc(Cl)cc3)C2)cc1 (centres undefined)
4,> 30 µM (inactive),CN(C)c1ccc(C2CC(c3ccc(Cl)cc3)=NN2c2ccccc2)cc1 (centres undefined)
5,inactive,NS(=O)(=O)c1ccc(N2N=C(c3ccc(Cl)cc3)CC2c2ccccc2)cc1 (centres undefined)
6,> 30 µM (inactive),Clc1ccc(N2N=C(c3ccccc3)CC2c2ccccc2)cc1 (centres undefined)
7,> 30 µM (inactive),FC(F)(F)c1cccc(N2N=C(c3ccc(Cl)cc3)CC2c2ccccc2Cl)c1 (centres undefined)
8,> 30 µM (inactive),Cc1ccccc1C1CC(c2ccccc2)=NN1c1ccc(S(N)(=O)=O)cc1 (centres undefined)
9,> 30 µM (inactive),COc1ccc(C2CC(c3ccccc3)=NN2c2ccc(C(N)=O)cc2)cc1 (centres undefined)
10,> 30 µM (inactive),CN(C)c1ccc(C2CC(c3ccc(Br)cc3)=NN2c2ccccc2)cc1 (centres undefined)
11,> 30 µM (inactive),Fc1ccccc1C1CC(c2ccc(Br)cc2)=NN1c1ccc(Br)cc1 (centres undefined)
12,> 30 µM (inactive),Brc1ccc(N2N=C(c3ccccc3)CC2c2ccccc2)cc1 (centres undefined)
13,> 30 µM (inactive),Cc1ccc(C2CC(c3ccccc3)=NN2c2ccc(S(N)(=O)=O)cc2)cc1 (centres undefined)
14,> 30 µM (inactive),COc1ccc(C2CC(c3ccc(F)cc3)=NN2c2ccccc2)cc1OC (centres undefined)
15,> 30 µM (inactive),CN(C)c1ccc(C2CC(c3ccc(F)cc3)=NN2c2ccccc2)cc1 (centres undefined)
16,> 30 µM (inactive),COc1ccc(C2CC(c3ccc(Br)cc3)=NN2c2ccccc2Cl)cc1 (centres undefined)
17,> 30 µM (inactive),COc1ccc(C2=NN(c3ccccc3F)C(c3ccc(F)cc3)C2)cc1 (centres undefined)

# Further lines, the compound ahead of its results:
row,SMILES,EC50
1,CN(C)c1ccc(C2CC(c3ccccc3)=NN2c2ccccc2)cc1 (centres undefined),> 30 µM (inactive)
2,O=[N+]([O-])c1cccc(C2CC(c3ccccc3)=NN2c2ccccc2)c1 (centres undefined),> 30 µM (inactive)
3,COc1ccc(C2CC(c3ccc(N(C)C)cc3)=NN2c2ccc(S(N)(=O)=O)cc2)cc1 (centres undefined),> 30 µM (inactive)
4,Cc1ccccc1N1N=C(c2ccccc2)CC1c1cccc([N+](=O)[O-])c1 (centres undefined),> 30 µM (inactive)
5,COc1cccc(C2CC(c3ccccc3)=NN2c2ccc(S(N)(=O)=O)cc2)c1 (centres undefined),> 30 µM (inactive)
6,COc1ccc(C2CC(c3cccc(C(F)(F)F)c3)=NN2c2ccc(S(N)(=O)=O)cc2)cc1 (centres undefined),> 30 µM (inactive)
7,Cc1cccc(N2N=C(c3ccccc3)CC2c2ccccc2)c1 (centres undefined),> 30 µM (inactive)
8,COc1ccc(C2CC(C3CCCCC3)=NN2c2ccc(S(N)(=O)=O)cc2)cc1 (centres undefined),> 30 µM (inactive)
9,COc1ccc(C2CC(c3ccc(F)cc3)=NN2c2ccc(S(N)(=O)=O)cc2)cc1 (centres undefined),> 30 µM (inactive)
10,Cc1ccccc1N1N=C(c2ccccc2)CC1c1ccc(N(C)C)cc1 (centres undefined),> 30 µM (inactive)
11,COc1ccc(C2CC(c3cccc(C)c3)=NN2c2ccc(S(N)(=O)=O)cc2)cc1 (centres undefined),> 30 µM (inactive)
12,COc1ccc(C2CC(c3ccccc3OC)=NN2c2ccc(S(N)(=O)=O)cc2)cc1 (centres undefined),> 30 µM (inactive)
13,COc1ccc(C2CC(c3ccccc3Br)=NN2c2ccc(S(N)(=O)=O)cc2)cc1 (centres undefined),> 30 µM (inactive)
14,NS(=O)(=O)c1ccc(N2N=C(c3ccccc3)CC2c2ccccc2)cc1 (centres undefined),> 30 µM (inactive)
15,COc1ccc(C2CC(c3ccccc3)=NN2c2ccc(C(=O)O)cc2)cc1 (centres undefined),> 30 µM (inactive)
16,COc1ccc(C2CC(c3ccccc3C(F)(F)F)=NN2c2ccc(S(N)(=O)=O)cc2)cc1 (centres undefined),> 30 µM (inactive)
17,COc1ccc(C2CC(c3ccc(F)cc3)=NN2c2cccc(F)c2)cc1OC (centres undefined),> 30 µM (inactive)
18,COc1ccccc1N1N=C(c2ccccc2)CC1c1ccccc1 (centres undefined),> 30 µM (inactive)
19,COc1ccc(C2=NN(c3ccc(S(N)(=O)=O)cc3)C(c3ccc(OC)cc3)C2)cc1 (centres undefined),> 30 µM (inactive)

row,SMILES,EC50
1,O=C(O)c1ccc(N2N=C(c3ccccc3)CC2c2ccccc2)cc1 (centres undefined),> 30 µM (inactive)
2,COc1ccc(C2=NN(c3ccc(Cl)c(Cl)c3)C(c3ccc(OC)cc3)C2)cc1 (centres undefined),> 30 µM (inactive)
3,Cc1ccc(-c2cc(C(F)(F)F)nn2-c2ccc(S(N)(=O)=O)cc2)cc1,> 30 µM (inactive)
4,O=S(=O)(c1ccc(N2N=C(c3ccccc3)CC2c2ccccc2)cc1)C(F)F (centres undefined),> 30 µM (inactive)
5,COc1ccc(C2CC(c3ccc(F)cc3)=NN2c2cc(Cl)ccc2Cl)cc1 (centres undefined),> 30 µM (inactive)
6,COc1ccc(C2CC(c3ccc(Cl)cc3)=NN2c2ccc(S(N)(=O)=O)cc2)cc1 (centres undefined),> 30 µM (inactive)
7,COc1ccc(C2CC(c3ccccc3Cl)=NN2c2ccc(S(N)(=O)=O)cc2)cc1 (centres undefined),> 30 µM (inactive)
8,COc1ccc(C2CC(c3cccs3)=NN2c2ccc(S(N)(=O)=O)cc2)cc1 (centres undefined),> 30 µM (inactive)
9,O=S(=O)(O)c1ccc(N2N=C(c3ccccc3)CC2c2ccccc2)cc1 (centres undefined),> 30 µM (inactive)
10,COc1ccc(C2CC(c3cccc(Br)c3)=NN2c2ccc(S(N)(=O)=O)cc2)cc1 (centres undefined),> 30 µM (inactive)
11,COc1ccc(C2CC(c3cccc(Cl)c3)=NN2c2ccc(S(N)(=O)=O)cc2)cc1 (centres undefined),> 30 µM (inactive)
12,COc1ccc(C2CC(C)=NN2c2ccc(S(N)(=O)=O)cc2)cc1 (centres undefined),> 30 µM (inactive)
13,COc1ccc(C2CC(C(C)(C)C)=NN2c2ccc(S(N)(=O)=O)cc2)cc1 (centres undefined),> 30 µM (inactive)
14,COc1ccc(C2CC(c3cccc(N(C)C)c3)=NN2c2ccc(S(N)(=O)=O)cc2)cc1 (centres undefined),> 30 µM (inactive)
15,COc1ccc(C2CC(c3ccc(C)cc3)=NN2c2ccc(S(N)(=O)=O)cc2)cc1 (centres undefined),> 30 µM (inactive)
16,COc1ccc(C2CC(c3ccncc3)=NN2c2ccc(S(N)(=O)=O)cc2)cc1 (centres undefined),> 30 µM (inactive)
17,COc1ccc(C2CC(c3ccccc3)=NN2c2ccc(S(N)(=O)=O)cc2)cc1OC (centres undefined),> 30 µM (inactive)
18,COc1ccc(C2CC(c3ccc(C(F)(F)F)cc3)=NN2c2ccc(S(N)(=O)=O)cc2)cc1 (centres undefined),> 30 µM (inactive)
19,Cc1onc(-c2ccccc2)c1-c1ccc(S(N)(=O)=O)cc1,> 30 µM (inactive)

row,SMILES,EC50
1,COc1ccc(C2CC(c3ccccc3)=NN2c2cccc(S(N)(=O)=O)c2)cc1 (centres undefined),> 30 µM (inactive)
2,COc1ccc(C2=NN(c3ccccc3)C(c3ccc(OC)c(OC)c3C(=O)O)C2)cc1 (centres undefined),> 30 µM (inactive)
3,O=[N+]([O-])c1ccc(N2N=C(c3ccccc3)CC2c2ccccc2)cc1 (centres undefined),> 30 µM (inactive)
4,Cc1cccc(C2CC(c3ccccc3)=NN2c2ccc(S(N)(=O)=O)cc2)c1 (centres undefined),> 30 µM (inactive)
5,COc1ccc(-c2cc(-c3ccccc3)nn2-c2ccc(S(N)(=O)=O)cc2)cc1,> 30 µM (inactive)
6,COc1ccc(C2CC(c3cccc(F)c3)=NN2c2ccc(S(N)(=O)=O)cc2)cc1 (centres undefined),> 30 µM (inactive)
7,COc1ccc(C2CC(c3cccnc3)=NN2c2ccc(S(N)(=O)=O)cc2)cc1 (centres undefined),> 30 µM (inactive)
8,COc1ccc(C2CC(c3cccc(OC)c3)=NN2c2ccc(S(N)(=O)=O)cc2)cc1 (centres undefined),> 30 µM (inactive)
9,COc1ccc(C2CC(c3ccccc3C)=NN2c2ccc(S(N)(=O)=O)cc2)cc1 (centres undefined),> 30 µM (inactive)
10,Clc1cccc(N2N=C(c3ccccc3)CC2c2ccccc2)c1 (centres undefined),> 30 µM (inactive)
11,COc1ccc(C2CC(c3ccsc3)=NN2c2ccc(S(N)(=O)=O)cc2)cc1 (centres undefined),> 30 µM (inactive)
12,COc1ccccc1C1CC(c2ccccc2)=NN1c1ccccc1 (centres undefined),> 30 µM (inactive)
13,COc1ccc(C2CC(c3ccccc3)=NN2c2ccc(Cl)c(C(=O)O)c2)cc1 (centres undefined),> 30 µM (inactive)
14,CN(C)c1ccc(C2CC(c3ccccc3)=NN2c2ccc([N+](=O)[O-])cc2)cc1 (centres undefined),> 30 µM (inactive)
15,CC(=O)Oc1ccc(C2=NN(c3ccccc3)C(c3ccccc3)C2)cc1 (centres undefined),> 30 µM (inactive)
16,NS(=O)(=O)c1ccc(N2N=C(c3ccccc3)CC2c2cccc(Cl)c2)cc1 (centres undefined),> 30 µM (inactive)
17,CCc1ccc(C2=NN(c3ccc(S(N)(=O)=O)cc3)C(c3ccc(F)cc3)C2)cc1 (centres undefined),> 30 µM (inactive)
18,COc1ccc(C2CC(c3ccccc3)=NN2c2ccc(Cl)c(C(=O)O)c2)cc1OC (centres undefined),> 30 µM (inactive)

# Same assay, conditions: GST-Ras beads, Bodipy-FL-GTP binding, measured here: Ki calculated from EC50
row,Ki,SMILES
1,240 nM,COc1ccc(C2=NN(c3ccccc3)C(c3ccc(Cl)cc3)C2)cc1 (centres undefined)
2,180 nM,O=S(=O)(c1ccc(N2N=C(c3ccc(Br)cc3)CC2c2ccccc2)cc1)C(F)F (centres undefined)
3,1190 nM,COc1ccc(C2=NN(c3ccccc3)C(c3ccccc3C(F)(F)F)C2)cc1 (centres undefined)
4,10 nM,NS(=O)(=O)c1ccc(N2N=C(c3ccc(Cl)cc3)CC2c2ccccc2)cc1 (centres undefined)
